Tests used:
Assay in all cases: combination Emax (second highest fraction inhibited in the dose matrix, 72 h); higher = more inhibition; extreme values may be limits of the assay
[1] = test system: L-363 (Plasma Cell Myeloma)
In short: (§1)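 After 24 hours at 37°C and 5% CO2 in 1536-well plates, cells in DMEM/F12 or RPMI plus 10% FBS received two-drug dose matrices for 72 hours. Viability came from CellTiter-Glo 2.0 luminescence and was scaled as inhibition, anchored at 0 by vehicle wells and at 1 by blank wells. Combination Emax is taken as the second-highest inhibition in the matrix, and Bliss excess as the observed combination effect less EA + EB − EA·EB, with EA and EB the single-agent effects.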

[2] = test system: TK (B-Cell Non-Hodgkin's Lymphoma)
In short: as §1

[3] = test system: MRK-nu-1 (Breast Carcinoma)
In short: as §1

[4] = test system: NCI-H2009 (Lung Adenocarcinoma)
In short: as §1

NCI-H2452 (Mesothelioma) = test system: NCI-H2452 (Mesothelioma)
In short: as §1

[5] = test system: NCI-H1975 (Lung Adenocarcinoma)
In short: as §1

DK-MG (Glioblastoma) = test system: DK-MG (Glioblastoma)
In short: as §1

[6] = test system: SW1463 (Colorectal Carcinoma)
In short: as §1

[7] = test system: TOV-21G (Ovarian Carcinoma)
In short: as §1

[8] = test system: CAL-85-1 (Breast Carcinoma)
In short: as §1

GCIY (Gastric Carcinoma) = test system: GCIY (Gastric Carcinoma)
In short: as §1

SK-N-DZ (Neuroblastoma) = test system: SK-N-DZ (Neuroblastoma)
In short: as §1

[9] = test system: JJN-3 (Plasma Cell Myeloma)
In short: as §1

[10] = test system: NCI-H1944 (Lung Adenocarcinoma)
In short: as §1

[11] = test system: OCI-M1 (Acute Myeloid Leukemia)
In short: as §1

[12] = test system: C2BBe1 (Colorectal Carcinoma)
In short: as §1

[13] = test system: COR-L105 (Lung Adenocarcinoma)
In short: as §1

[14] = test system: NCI-H2023 (Non-Small Cell Lung Carcinoma)
In short: as §1

[15] = test system: IGROV-1 (Ovarian Carcinoma)
In short: as §1

## CN(CCO)CC[C@H](CSc1ccccc1)Nc1ccc(S(=O)(=O)NC(=O)c2ccc(N3CCC([C@@H](O)c4ccccc4-c4ccc(Cl)cc4)CC3)cc2)cc1S(=O)(=O)C(F)(F)F [AZD4320] + C1CN(CCC1(C(=O)N[C@@H](CCO)C2=CC=C(C=C2)Cl)N)C3=NC=NC4=C3C=CN4 [Capivasertib] (first compound max 1 µM, 7x7, partner max 3 µM)
[1]
  combination Emax: 0.376
[2]
  combination Emax: 0.97
[3]
  combination Emax: 0.3
[4]
  combination Emax: 0.0559
NCI-H2452 (Mesothelioma)
  combination Emax: 0.202
[5]
  combination Emax: 0.558
DK-MG (Glioblastoma)
  combination Emax: 0.255
[6]
  combination Emax: 0.271
[7]
  combination Emax: 0.688
[8]
  combination Emax: 0.264
GCIY (Gastric Carcinoma)
  combination Emax: 0.576
SK-N-DZ (Neuroblastoma)
  combination Emax: 0.705
[9]
  combination Emax: 0.383
[10]
  combination Emax: 0.373
[11]
  combination Emax: 0.984
[12]
  combination Emax: 0.209
[13]
  combination Emax: 0.411
[14]
  combination Emax: 0.264
[15]
  combination Emax: 0.767

## CN(CCO)CC[C@H](CSc1ccccc1)Nc1ccc(S(=O)(=O)NC(=O)c2ccc(N3CCC([C@@H](O)c4ccccc4-c4ccc(Cl)cc4)CC3)cc2)cc1S(=O)(=O)C(F)(F)F [AZD4320] + CCN(CCO)CCCOc1ccc2c(Nc3cc(CC(=O)Nc4cccc(F)c4)[nH]n3)ncnc2c1 [AZD2811] (first compound max 1 µM, 7x7, partner max 1 µM)
[1]
  combination Emax: 0.135
[2]
  combination Emax: 0.993
[3]
  combination Emax: 0.863
[4]
  combination Emax: 0.224
NCI-H2452 (Mesothelioma)
  combination Emax: 0.364
[5]
  combination Emax: 0.411
DK-MG (Glioblastoma)
  combination Emax: 0.255
[6]
  combination Emax: 0.204
[7]
  combination Emax: 0.476
[8]
  combination Emax: 0.397
GCIY (Gastric Carcinoma)
  combination Emax: 0.554
SK-N-DZ (Neuroblastoma)
  combination Emax: 0.787
[9]
  combination Emax: 0.904
[10]
  combination Emax: 0.584
[11]
  combination Emax: 0.988
[12]
  combination Emax: 0.224
[13]
  combination Emax: 0.215
[15]
  combination Emax: 0.266

## CN(CCO)CC[C@H](CSc1ccccc1)Nc1ccc(S(=O)(=O)NC(=O)c2ccc(N3CCC([C@@H](O)c4ccccc4-c4ccc(Cl)cc4)CC3)cc2)cc1S(=O)(=O)C(F)(F)F [AZD4320] + C[C@@H]1COCCN1C2=NC(=NC(=C2)C3(CC3)[S@](=N)(=O)C)C4=C5C=CNC5=NC=C4 [AZD6738] (first compound max 1 µM, 7x7, partner max 10 µM)
[1]
  combination Emax: 0.853
[2]
  combination Emax: 1
[3]
  combination Emax: 0.819
[4]
  combination Emax: 0.543
NCI-H2452 (Mesothelioma)
  combination Emax: 0.704
[5]
  combination Emax: 0.481
DK-MG (Glioblastoma)
  combination Emax: 0.359
[6]
  combination Emax: 0.566
[7]
  combination Emax: 0.824
[8]
  combination Emax: 0.633
GCIY (Gastric Carcinoma)
  combination Emax: 0.918
SK-N-DZ (Neuroblastoma)
  combination Emax: 1
[9]
  combination Emax: 0.797
[10]
  combination Emax: 0.993
[11]
  combination Emax: 1
[12]
  combination Emax: 0.494
[13]
  combination Emax: 0.54
[14]
  combination Emax: 0.868
[15]
  combination Emax: 0.876

## CN(CCO)CC[C@H](CSc1ccccc1)Nc1ccc(S(=O)(=O)NC(=O)c2ccc(N3CCC([C@@H](O)c4ccccc4-c4ccc(Cl)cc4)CC3)cc2)cc1S(=O)(=O)C(F)(F)F [AZD4320] + C[C@@H](Nc1cc(F)cc(F)c1)c1cc(C(=O)N(C)C)cc2c(=O)cc(N3CCOCC3)oc12 [AZD8186] (first compound max 1 µM, 7x7, partner max 3 µM)
[1]
  combination Emax: 0.249
[2]
  combination Emax: 0.999
[3]
  combination Emax: 0.589
[4]
  combination Emax: 0.553
NCI-H2452 (Mesothelioma)
  combination Emax: 0.364
[5]
  combination Emax: 0.421
DK-MG (Glioblastoma)
  combination Emax: 0.557
[6]
  combination Emax: 0.27
[7]
  combination Emax: 0.37
[8]
  combination Emax: 0.668
GCIY (Gastric Carcinoma)
  combination Emax: 0.719
SK-N-DZ (Neuroblastoma)
  combination Emax: 0.868
[9]
  combination Emax: 0.497
[10]
  combination Emax: 0.767
[11]
  combination Emax: 1
[12]
  combination Emax: 0.461
[13]
  combination Emax: 0.387
[14]
  combination Emax: 0.351
[15]
  combination Emax: 0.832

## CN(CCO)CC[C@H](CSc1ccccc1)Nc1ccc(S(=O)(=O)NC(=O)c2ccc(N3CCC([C@@H](O)c4ccccc4-c4ccc(Cl)cc4)CC3)cc2)cc1S(=O)(=O)C(F)(F)F [AZD4320] + Cc1cc2ncnn2cc1Nc1ncc2c(n1)n(C1CCOCC1)c(=O)n2C [AZD7648] (first compound max 1 µM, 7x7, partner max 10 µM)
[1]
  combination Emax: 0.211
[2]
  combination Emax: 0.991
[3]
  combination Emax: 0.697
[4]
  combination Emax: 0.0699
NCI-H2452 (Mesothelioma)
  combination Emax: 0.386
[5]
  combination Emax: 0.35
DK-MG (Glioblastoma)
  combination Emax: 0.261
[6]
  combination Emax: 0.185
[7]
  combination Emax: 0.209
[8]
  combination Emax: 0.337
GCIY (Gastric Carcinoma)
  combination Emax: 0.609
SK-N-DZ (Neuroblastoma)
  combination Emax: 0.651
[9]
  combination Emax: 0.473
[10]
  combination Emax: 0.464
[11]
  combination Emax: 0.981
[12]
  combination Emax: 0.383
[13]
  combination Emax: 0.253
[14]
  combination Emax: 0.318
[15]
  combination Emax: 0.653

## C[C@@H](c1ccc2nccn2c1)n1nnc2ncc(-c3cnn(C)c3)nc21 [Savolitinib] + CN(CC[C@H](CSC1=CC=CC=C1)NC2=C(C=C(C=C2)S(=O)(=O)NC(=O)C3=CC=C(C=C3)N4CCC(CC4)[C@H](C5=CC=CC=C5C6=CC=C(C=C6)Cl)O)S(=O)(=O)C(F)(F)F)CCO [AZD4320] (first compound max 1 µM, 7x7, partner max 1 µM)
[2]
  combination Emax: 0.987
[5]
  combination Emax: 0.178
DK-MG (Glioblastoma)
  combination Emax: 0.37
[7]
  combination Emax: 0.227
SK-N-DZ (Neuroblastoma)
  combination Emax: 0.784
[9]
  combination Emax: 0.357
[10]
  combination Emax: 0.369
[11]
  combination Emax: 0.993
[12]
  combination Emax: 0.187
[15]
  combination Emax: 0.219

From the supplement of paper PMC11061612
